Experimental data: US20260250290A1 (BRISTOL-MYERS SQUIBB COMPANY, priority 2023, published 2026)
Where a name gives a salt, the structure may show the parent alone.

Target: T1, full length SGK1 (Homo sapiens, UniProt O00141)
T1 construct: 125 μM full length SGK1 (Life Technologies Part #PR7358A); purchased Life Technologies PR7358A
T1 sequence (O00141 1-431): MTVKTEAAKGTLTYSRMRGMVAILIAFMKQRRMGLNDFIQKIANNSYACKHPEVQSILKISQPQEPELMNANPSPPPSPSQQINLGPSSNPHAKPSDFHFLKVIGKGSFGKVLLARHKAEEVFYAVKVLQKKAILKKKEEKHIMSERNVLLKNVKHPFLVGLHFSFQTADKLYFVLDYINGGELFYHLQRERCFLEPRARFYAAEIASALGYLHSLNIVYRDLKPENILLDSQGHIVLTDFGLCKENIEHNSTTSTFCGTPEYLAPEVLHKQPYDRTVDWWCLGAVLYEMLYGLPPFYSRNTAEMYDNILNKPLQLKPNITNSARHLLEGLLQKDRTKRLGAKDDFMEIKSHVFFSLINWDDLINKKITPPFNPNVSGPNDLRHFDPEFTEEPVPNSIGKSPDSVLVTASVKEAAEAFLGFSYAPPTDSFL
Assay: SGK1 inhibition Assay A (Caliper LabChip electrophoretic separation of fluorescent peptide substrate and phosphorylated product)
Format: biochemical
Conditions: Assay A; 20 μM ATP, 40 min incubation; read-out: SGK1 IC50

Row | IC50 | SMILES
1 | 43 nM | COC(=O)N1CC=C(c2cc(N3CCC[C@@H](NC(=O)c4sc(Cl)cc4OCCN4CCOCC4)C3)c3c(N)ncnn23)C1 [Example 185, methyl (R)-3-(4-amino-5-(3-(5-chloro-3-(2-morpholinoethoxy)thiophene-2-carboxamido)piperidin-1-yl)pyrrolo[2,1-f][1,2,4]triazin-7-yl)-2,5-dihydro-1H-pyrrole-1-carboxylate, 2 TFA]
2 | 3 nM | CN(C)CCOc1cc(Cl)sc1C(=O)N[C@@H]1CCCN(c2cc(-c3ccn4nnnc4c3)n3ncnc(N)c23)C1 [Example 186, (R)—N-(1-(4-amino-7-(tetrazolo[1,5-a]pyridin-7-yl)pyrrolo[2,1-f][1,2,4]triazin-5-yl)piperidin-3-yl)-5-chloro-3-(2-(dimethylamino)ethoxy)thiophene-2-carboxamide]
3 | 6 nM | CN(C)CCOc1cc(Cl)sc1C(=O)N[C@@H]1CCCN(c2cc(-c3ccc(-n4cnnn4)cc3)n3ncnc(N)c23)C1 [Example 187, (R)-N-(1-(7-(4-(1H-tetrazol-1-yl)phenyl)-4-aminopyrrolo[2,1-f][1,2,4]triazin-5-yl)piperidin-3-yl)-5-chloro-3-(2-(dimethylamino)ethoxy) thiophene-2-carboxamide, 2 TFA]
4 | 4 nM | CN(C)CCOc1cc(Cl)sc1C(=O)N[C@@H]1CCCN(c2cc(-c3ccc(-n4cnnn4)c(F)c3)n3ncnc(N)c23)C1 [Example 188]
5 | 2 nM | CN(C)CCOc1cc(Cl)sc1C(=O)N[C@@H]1CCCN(c2cc(-c3ccc(C(F)F)nc3)n3ncnc(N)c23)C1 [Example 189, (R)-N-(1-(4-amino-7-(6-(difluoromethyl)pyridin-3-yl)pyrrolo[2,1-f][1,2,4]triazin-5-yl)piperidin-3-yl)-5-chloro-3-(2-(dimethylamino)ethoxy) thiophene-2-carboxamide]
6 | 19 nM | CN(C)CCOc1cc(Cl)sc1C(=O)N[C@@H]1CCCN(c2cc(-c3ccc(-n4cncn4)nc3)n3ncnc(N)c23)C1 [Example 190, (R)-N-(1-(7-(6-(1H-1,2,4-triazol-1-yl)pyridin-3-yl)-4-aminopyrrolo[2,1-f][1,2,4]triazin-5-yl)piperidin-3-yl)-5-chloro-3-(2-(dimethylamino)ethoxy) thiopbene-2-carboxamide]
7 | 6 nM | CN(C)CCOc1cc(Cl)sc1C(=O)N[C@@H]1CCCN(c2cc(-c3ccc(-n4cnc(C#N)n4)nc3)n3ncnc(N)c23)C1 [Example 191, (R)-N-(1-(4-amino-7-(6-(3-cyano-1H-1,2,4-triazol-1-yl)pyridin-3-yl)pyrrolo[2,1-f][1,2,4]triazin-5-yl)piperidin-3-yl)-5-chloro-3-(2-(dimethylamino)ethoxy) thiophene-2-carboxamide]
8 | 10 nM | CN(C)CCOc1cc(Cl)sc1C(=O)N[C@@H]1CCCN(c2cc(-c3ccc4nnnn4c3)n3ncnc(N)c23)C1 [Example 192, (R)-N-(1-(4-amino-7-(tetrazolo[1,5-a]pyridin-6-yl)pyrrolo[2,1-f][1,2,4]triazin-5-yl)piperidin-3-yl)-5-chloro-3-(2-(dimethylamino)ethoxy) thiophene-2-carboxamide]
9 | 25 nM | CN(C)CCOc1cc(Cl)sc1C(=O)N[C@@H]1CCCN(c2cc(-c3ccc4ncnn4c3)n3ncnc(N)c23)C1 [Example 193, (R)-N-(1-(7-([1,2,4]triazolo{1,5-a]pyridin-6-yl)-4-aminopyrrolo[2,1-f][1,2,4]triazin-5-yl)piperidin-3-yl)-5-chloro-3-(2-(dimethylamino)ethoxy) thiophene-2-carboxamide]
10 | 188 nM | Cc1ccc(C(=O)N[C@@H]2CCCN(c3c(Br)c(-c4ccc(S(C)(=O)=O)cc4)n4ncnc(N)c34)C2)s1 [Example 194, N-[(3R)-1-[4-amino-6-bromo-7-(4-methanesulfonylphenyl)pyrrolo[2,1-f][1,2,4]triazin-5-yl]piperidin-3-yl]-5-methylthiophene-2-carboxamide]
11 | 107 nM | Cc1ccc(C(=O)N[C@@H]2CCCN(c3c(Cl)c(-c4ccc(S(C)(=O)=O)cc4)n4ncnc(N)c34)C2)s1 [Example 195, N-[(3R)-1-[4-amino-6-chloro-7-(4-methanesulfonylphenyl)pyrrolo[2,1-f][1,2,4]triazin-5-yl]piperidin-3-yl]-5-methylthiophene-2-carboxamide]
12 | 222 nM | CS(=O)(=O)c1ccc(-c2c(Cl)c(N3CCC[C@@H](NC(=O)c4ccncc4)C3)c3c(N)ncnn23)cc1 [Example 196, N-[(3R)-1-[4-amino-6-chloro-7-(4-methanesulfonylphenyl)pyrrolo[2,1-f][1,2,4]triazin-5-yl]piperidin-3-yl]pyridine-4-carboxamide]
13 | 30 nM | Cc1ccc(C(=O)N[C@@H]2CCCN(c3c(C#N)c(-c4ccc(S(C)(=O)=O)cc4)n4ncnc(N)c34)C2)s1 [Example 197, N-[(3R)-1-[4-amino-6-cyano-7-(4-methanesulfonylphenyl)pyrrolo[2,1-f][1,2,4]triazin-5-yl]piperidin-3-yl]-5-methylthiophene-2-carboxamide]
14 | 2 nM | Cc1cc(N2CCOCC2)c(C(=O)N[C@@H]2CCCN(c3cc(-c4ccnc(F)c4)n4ncnc(N)c34)C2)s1 [Example 198, (R)—N-(1-(4-amino-7-(2-fluoropyridin-4-yl)pyrrolo[2,1-f][1,2,4]triazin-5-yl)piperidin-3-yl)-5-methyl-3-morpholinothiophene-2-carboxamide, 2 TFA]
15 | 2 nM | Cc1cc(N2CCN(C)CC2)c(C(=O)N[C@@H]2CCCN(c3cc(-c4ccnc(F)c4)n4ncnc(N)c34)C2)s1 [Example 199, (R)—N-(1-(4-amino-7-(2-fluoropyridin-4-yl)pyrrolo[2,1-f][1,2,4]triazin-5-yl)piperidin-3-yl)-5-methyl-3-(4-methylpiperazin-1-yl)thiophene-2-carboxamide, 3 TFA]
16 | 15 nM | Cc1cc(CN2CCN(C)CC2)c(C(=O)N[C@@H]2CCCN(c3cc(-c4ccnc(F)c4)n4ncnc(N)c34)C2)s1 [Example 200, (R)—N-(1-(4-amino-7-(2-fluoropyridin-4-yl)pyrrolo[2,1-f][1,2,4]triazin-5-yl)piperidin-3-yl)-5-methyl-3-((4-methylpiperazin-1-yl)methyl)thiophene-2-carboxamide]
17 | 3 nM | Cc1cc(COCCN2CCOCC2)c(C(=O)N[C@@H]2CCCN(c3cc(-c4ccnc(F)c4)n4ncnc(N)c34)C2)s1 [Example 201, (R)—N-(1-(4-amino-7-(2-fluoropyridin-4-yl)pyrrolo[2,1-f][1,2,4]triazin-5-yl)piperidin-3-yl)-5-methyl-3-((2-morpholinoethoxy)methyl)thiophene-2-carboxamide, 2 TFA]
18 | 12 nM | Cc1cc(CO)c(C(=O)N[C@@H]2CCCN(c3cc(-c4ccnc(F)c4)n4ncnc(N)c34)C2)s1 [Example 202, (R)—N-(1-(4-amino-7-(2-fluoropyridin-4-yl)pyrrolo[2,1-f][1,2,4]triazin-5-yl)piperidin-3-yl)-3-(hydroxymethyl)-5-methylthiophene-2-carboxamide]
19 | 19 nM | Cn1cc(-c2cc(N3CCC[C@@H](NC(=O)c4ccc(Cl)s4)C3)c3c(N)ncnn23)c(C2CC2)n1 [Example 203, (R)—N-(1-(4-amino-7-(3-cyclopropyl-1-methyl-1H-pyrazol-4-yl)pyrrolo[2,1-f][1,2,4]triazin-5-yl)piperidin-3-yl)-5-chlorothiophene-2-carboxamide, TFA]
20 | 5 nM | CC(=O)c1ccc(-c2cc(N3CCC[C@@H](NC(=O)c4ccc(Cl)s4)C3)c3c(N)ncnn23)cc1 [Example 204, (R)-N-(1-(7-(4-acetylphenyl)-4-aminopyrrolo[2,1-f][1,2,4]triazin-5-yl)piperidin-3-yl)-5-chlorothiophene-2-carboxamide, TFA]
21 | 7 nM | Nc1ncnn2c(-c3ccnc4[nH]ccc34)cc(N3CCC[C@@H](NC(=O)c4ccc(Cl)s4)C3)c12 [Example 205, (R)-N-(1-(4-amino-7-(1H-pyrrolo[2,3-b]pyridin-4-yl)pyrrolo[2,1-f][1,2,4]triazin-5-yl)piperidin-3-yl)-5-chlorothiophene-2-carboxamide, TFA]
22 | 12 nM | Nc1ncnn2c(-c3cc(F)c(O)c(F)c3)cc(N3CCC[C@@H](NC(=O)c4ccc(Cl)s4)C3)c12 [Example 206, (R)-N-(1-(4-amino-7-(3,5-difluoro-4-hydroxyphenyl)pyrrolo [2,1-f][1,2,4]triazin-5-yl)piperidin-3-yl)-5-chlorothiophene-2-carboxamide]
23 | 4 nM | COc1cc(-c2cc(N3CCC[C@@H](NC(=O)c4ccc(Cl)s4)C3)c3c(N)ncnn23)ccc1C(N)=O [Example 207, (R)-N-(1-(4-amino-7-(4-carbamoyl-3-methoxyphenyl)pyrrolo [2,1-f][1,2,4]triazin-5-yl)piperidin-3-yl)-5-chlorothiophene-2-carboxamide]
24 | 20 nM | CC(=O)Nc1cccc(-c2cc(N3CCC[C@@H](NC(=O)c4ccc(Cl)s4)C3)c3c(N)ncnn23)c1 [Example 208, (R)-N-(1-(7-(3-acetamidophenyl)-4-aminopyrrolo[2,1-f][1,2,4]triazin-5-yl)piperidin-3-yl)-5-chlorothiophene-2-carboxamide]
25 | 9 nM | Cn1nccc1-c1cc(N2CCC[C@@H](NC(=O)c3ccc(Cl)s3)C2)c2c(N)ncnn12 [Example 210, (R)-N-(1-(4-amino-7-(1-methyl-1H-pyrazol-5-yl)pyrrolo[2,1-f][1,2,4]triazin-5-yl)piperidin-3-yl)-5-chlorothiophene-2-carboxamide, TFA]
